Measurements from PMC12040169 (PLOS Biology, 2025).

Experiment: in vitro
Settings: human, hela cells, % viability

| Structure (SMILES) | viability at 28.5 h, 10 µM [%] | viability at 28.5 h, 10 µM (bulk resorufin, single well) [%] |
| --- | --- | --- |
| CN(C)C1Cc2cccc3nc(S(C)(=O)=O)n(c23)C1 (stereo not shown) [CBK007942] | 94.8 |  |
| Cc1ccc(S(=O)(=O)N2CCN(C(=O)C3C4C=CC(C4)C3C(=O)O)CC2)cc1 (stereo not shown) [CBK286944] | 106 |  |
| COC(=O)c1c(NC(=S)Nc2ccn(C)n2)sc2c1CCCCC2 [CBK266888] | 106 |  |
| Cc1nc2n(n1)C(C(=O)Nc1ccc(C)c(C)c1)CC(=O)N2 (stereo not shown) [CBK288223] | 105 |  |
| CCc1nc2c(OCCOc3ccccc3)cccn2c1N(C=O)CC(=O)N(C)C [CBK147510] | 96.5 |  |
| CC(C)(C)c1ccc(OCCCC(=O)Nc2ccc(N3CCOCC3)cc2)cc1 [CBK264783] | 88.8 |  |
| CS(=O)(=O)Nc1ccccc1C(=O)NCc1ccccn1 [CBK268494] | 106 |  |
| COc1cc(CNc2ccc(N3CCOCC3)cc2)ccc1OCc1ccc(Cl)cc1Cl [CBK074516] | 93.1 |  |
| CC1CN(C(=O)c2ccccc2)CC(C)N1CCCCc1ccc(F)cc1 (stereo not shown) [CBK025019C] | 97.9 |  |
| COc1ccccc1NC(=O)CN(c1ccc(C)cc1)S(=O)(=O)c1ccc(F)cc1 [CBK262718] | 91.2 |  |
| Clc1ccc(OCCCn2ccnc2)c(CN2CCSCC2)c1 [CBK307194] | 104 |  |
| CCCn1c(SCC(=O)N(C)Cc2ccc(OCC)cc2)n[nH]c1=O [CBK295132] | 90 |  |
| CCOC(=O)Cc1csc(NS(=O)(=O)c2cn(C)cn2)n1 [CBK000888] | 112 |  |
| O=c1c2c(-c3ccc(F)cc3)csc2ncn1CC1(CO)CCOCC1 [CBK306822] | 88 |  |
| CN1CC=C(/C=C/C2=Cc3ccccc3OC2)CC1 [CBK283857] | 89.1 |  |
| Cc1ccc2[nH]c3c(c2c1)CCOC31CCN(Cc2ccccc2-c2ccccc2)CC1 [CBK039915] | 89.1 |  |
| CC1(C)C(=O)OC(C(=O)c2ccc(Br)cc2)C(C)(C)C1=O (stereo not shown) [CBK264600] | 90.3 |  |
| OC(CSc1ccccc1)CN1CCN(C(c2ccccc2)c2ccccc2)CC1 (stereo not shown) [CBK074683] | 91.3 |  |
| CCCC/C=C/c1cn2ccnc2c(N2CCN(c3ccccn3)CC2)n1 [CBK066224] | 94 |  |
| CCc1c(C(=O)NC2CCCOC2)[nH]c2ccc(F)cc12 (stereo not shown) [CBK283115] | 97.5 |  |
| Nc1nnc(-c2ccc(Oc3nc(N4CCOCC4)nc(N4CCOCC4)n3)cc2)s1 [CBK266305] | 96.1 |  |
| Cc1ccc(C(C)NC(=O)C2CCCN(S(C)(=O)=O)C2)c(C)c1 (stereo not shown) [CBK304349] | 94.1 |  |

| Structure (SMILES) | viability at 28.5 h, 10 µM [%] | viability at 28.5 h, 10 µM (bulk resorufin, single well) [%] |
| --- | --- | --- |
| COC(=O)c1ccc(Cl)c(NC(=O)CSc2nnc(-c3ccncc3)[nH]2)c1 [CBK268702] | 105 |  |
| Nc1ccccc1-c1ccccc1NC(=O)C(=O)O [CBK266824] | 110 |  |
| O=C(NC[C@H]1C[C@@H]2CC[N@]1C[C@@H]2CN1CCN(c2ccccn2)CC1)Nc1ccccc1 [CBK289114] | 106 |  |
| COc1ccc(C(=O)C2=C(O)C(=O)N(CCN3CCOCC3)C2c2ccc(Cl)cc2)cc1 (stereo not shown) [CBK264718] | 103 |  |
| Cc1ccc(-c2nc3ccccc3s2)cc1NC(=O)c1sc2ccccc2c1Cl [CBK263865] | 93.9 |  |
| CN1CCN(C2Cc3ccccc3Sc3c(O)cccc32)CC1 (stereo not shown) [CBK026200G] | 98 |  |
| COCCNC(=O)Cn1c(-c2cccs2)cc2cccnc21 [CBK282554] | 109 |  |
| O=C(c1ccco1)N1CCC[C@@H]1[C@@H](O)c1cccs1 [CBK284291] | 80.7 |  |
| C=CCN1CCC(C(=O)NC(=O)NCC2COc3ccccc3O2)CC1 (stereo not shown) [CBK051099] | 84.2 |  |
| C=C[C@H]1C[N@@]2CC[C@H]1C[C@@H]2CNS(=O)(=O)c1ccc(NC(C)=O)cc1 [CBK288749] | 98.9 |  |
| O=C1c2ccc3c4c(ccc(c24)C(=O)N1c1ccncc1)C(=O)N(c1ccncc1)C3=O [CBK261390] | 95.4 |  |
| COc1ccc([C@H](O)[C@@H]2CCCN(C(=O)OC(C)(C)C)C2)cc1 [CBK284311] | 83.4 |  |
| COc1cc(CN2CCNCC2)c2ccn(S(=O)(=O)c3ccccc3Cl)c2c1 [CBK144483T] | 91.9 |  |
| O=C(CSc1nc2sc3c(c2c(=O)n1Cc1ccco1)CCC3)NCc1ccco1 [CBK268499] | 101 |  |
| O=C1NC(=S)NC(=O)C1=CNCCc1c[nH]c2ccccc12 [CBK261124] |  | 110 |
| COc1ccc(-c2nnc(SCCC(=O)O)n2C)cc1OC [CBK268902] | 98.8 |  |
| c1cnc(N2CCN(CC3CC3)CC2)c(OCCN2CCOCC2)n1 [CBK082909] | 87.2 |  |
| CC(NC(=O)C1CCN(Cc2ccccn2)CC1)c1cccc2ccccc12 (stereo not shown) [CBK148662] | 98.2 |  |
| CC(C)S(=O)(=O)n1ccn(-c2ccc(Oc3ccccc3)cc2)c1=O [CBK106644] | 86.3 |  |
| c1ccc(CCN2CCC(Oc3nccnc3OCCN3CCOCC3)CC2)nc1 [CBK082944] | 96 |  |
| O=c1[nH]c(=O)c2ccn([C@H]3C[C@@H](O)[C@@H](CO)O3)c2[nH]1 [CBK201331] | 99 |  |
